Numbered stars: 1 amine (or outer) side, 2 acyl side, 3 side chain; on linkers, the order of the positions; unused ones are H or OH. Bridge positions count the residues as written; N and C are the ends. Square brackets hold non-standard residues; d marks the D form. Peptide text beside a SMILES is read from it. * marks the point of attachment. C20 diacid = O=C(O)CCCCCCCCCCCCCCCCCCC(=O)*; γGlu = O=C(O)[C@H](CCC(=O)[*:2])N[*:1]; NMeI = CC[C@H](C)[C@H](NC)C(=O)O; Sar = CNCC(=O)O
Columns and labels:
[1] = Solubility assessment (turbidity absorbance at 325 nm); assay type: physicochemical; details: stock 2 mg/ml diluted 1:1, ambient temperature (typically 25°C), n=1; for Solubility, Acetate buffer pH 4: 100 mM acetate buffer pH 4.0; for Solubility, Acetate buffer pH 5: 100 mM acetate buffer pH 5.0; for Solubility, Histidine buffer pH 6: 100 mM histidine buffer pH 6.0; for Solubility, Histidine buffer pH 7: 100 mM histidine buffer pH 7.0; for Solubility, Phosphate buffer pH 6: 100 mM phosphate buffer pH 6.0; for Solubility, Phosphate buffer pH 7: 100 mM phosphate buffer pH 7.0; for Solubility, Phosphate buffer pH 7.5: 100 mM phosphate buffer pH7.5
In short: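 Peptide stock (2 mg/ml, water pH 2.5) diluted 1:1 into 100 mM acetate (pH 4.0, 5.0), histidine (pH 6.0, 7.0) or phosphate (pH 6.0–7.5) buffer; absorbance at 325 nm read at about 25°C, n=1. A325 ≤ 0.02 taken as solubility ≥ 1 mg/ml.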

[2] = target: T1, human calcitonin receptor (hCTR2) (Homo sapiens, UniProt P30988); assay: hCTR2 assay: induction of cAMP (AlphaScreen cAMP Assay kit) in COS7 cells expressing hCTR2; assay type: cell-based
T1 construct: expressed in transfected cells
T1 sequence (P30988 25-474): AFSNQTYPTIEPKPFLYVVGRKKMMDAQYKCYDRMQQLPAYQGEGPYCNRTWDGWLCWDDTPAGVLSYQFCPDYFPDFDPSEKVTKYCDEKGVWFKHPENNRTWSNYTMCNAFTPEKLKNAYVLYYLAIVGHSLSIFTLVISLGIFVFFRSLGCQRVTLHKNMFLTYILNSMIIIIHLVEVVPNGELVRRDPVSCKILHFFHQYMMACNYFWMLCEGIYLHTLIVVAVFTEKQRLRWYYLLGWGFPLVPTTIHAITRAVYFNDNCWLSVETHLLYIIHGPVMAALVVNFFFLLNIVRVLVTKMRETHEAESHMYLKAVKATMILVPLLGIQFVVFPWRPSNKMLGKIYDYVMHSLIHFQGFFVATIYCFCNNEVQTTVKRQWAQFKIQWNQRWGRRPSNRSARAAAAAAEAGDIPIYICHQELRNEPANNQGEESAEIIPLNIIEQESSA
In short: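 Functional agonism is measured as cAMP accumulation in a COS7 line stably transfected with hCTR2, lacking endogenous RAMPs. Peptides act for 15 min at 37° C with IBMX present, and curves are fitted with a 4-parameter logistic model.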

[3] = target: T2, human amylin receptor 3 (hAMYR3) consisting of hCTR2 co-expressed with human Receptor Activity Modifying Protein 3 (hRAMP3) (Homo sapiens, UniProt O60896+P30988); assay: hAMYR3 assay: induction of cAMP (AlphaScreen cAMP Assay kit) in COS7 cells expressing hAMYR3; assay type: cell-based
T2 construct: expressed in transfected cells
T2 sequence (P30988 25-474): T1 sequence (P30988 25-474)
T2 sequence (O60896 24-148 partner): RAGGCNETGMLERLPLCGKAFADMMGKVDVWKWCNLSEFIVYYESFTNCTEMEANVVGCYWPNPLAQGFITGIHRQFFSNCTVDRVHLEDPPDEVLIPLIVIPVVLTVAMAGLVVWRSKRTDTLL
In short: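 Stable COS7 clone co-expressing hCTR2 and hRAMP3, stimulated 15 min at 37° C with increasing peptide in Tyrode buffer pH 7.4 with 100 µM IBMX and 0.1% casein. cAMP measured by AlphaScreen after lysis; EC50 and % efficacy versus pramlintide from 4PL fit.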

Structure (SMILES) | Solubility, Acetate buffer pH 4 [1] | Solubility, Acetate buffer pH 5 [1] | Solubility, Histidine buffer pH 6 [1] | Solubility, Histidine buffer pH 7 [1] | Solubility, Phosphate buffer pH 6 [1] | Solubility, Phosphate buffer pH 7 [1] | Solubility, Phosphate buffer pH 7.5 [1] | EC50 [2] [nM] | EC50 [3] [nM]
CC[C@H](C)[C@H](NC(=O)[C@@H](NC(=O)[C@H](CC(N)=O)NC(=O)[C@H](CO)NC(=O)CNC(=O)[C@@H](NC(=O)[C@H](CC(N)=O)NC(=O)[C@@H](NC(=O)[C@H](CO)NC(=O)[C@H](CO)NC(=O)[C@H](CC(C)C)NC(=O)[C@H]([C@@H](C)CC)N(C)C(=O)[C@H](C)NC(=O)CN(C)C(=O)[C@H](Cc1ccccc1)NC(=O)[C@H](CC(N)=O)NC(=O)[C@H](CC(N)=O)NC(=O)[C@H](CO)NC(=O)[C@H](CO)NC(=O)[C@H](CCCNC(=N)N)NC(=O)[C@H](Cc1c[nH]cn1)NC(=O)[C@H](CC(C)C)NC(=O)[C@H](Cc1ccccc1)NC(=O)[C@H](CCC(=O)O)NC(=O)[C@H](C)NC(=O)[C@H](CC(C)C)NC(=O)[C@H](CCCNC(=N)N)NC(=O)[C@H](CCC(N)=O)NC(=O)[C@@H](NC(=O)[C@H](C)NC(=O)[C@@H]1CSSC[C@H](NC(=O)[C@H](CCCNC(=N)N)NC(=O)CC[C@H](NC(=O)CCCCCCCCCCCCCCCCCCC(=O)O)C(=O)O)C(=O)N[C@@H](CC(N)=O)C(=O)N[C@@H]([C@@H](C)O)C(=O)N[C@@H](C)C(=O)N[C@@H]([C@@H](C)O)C(=O)N1)[C@@H](C)O)[C@@H](C)O)C(C)C)[C@@H](C)O)C(N)=O [Compound 99, [19CD]-isoGlu-RC()NTATC()ATQRLAEFLHRSSNNF-Gly(Me)-A-Ile(Me)-LSSTNVGSNTI-NH2] ({C20 diacid-γGlu}-RCNTATCATQRLAEFLHRSSNNF[Sar]A[NMeI]LSSTNVGSNTI-NH2; disulfide 2-7) | SS (SS indicates solubility ≥ 1mg/ml) | SS (SS indicates solubility ≥ 1mg/ml) | SS (SS indicates solubility ≥ 1mg/ml) | SS (SS indicates solubility ≥ 1mg/ml) | II (II indicates solubility ≤ 1 mg/ml) | SS (SS indicates solubility ≥ 1mg/ml) | SS (SS indicates solubility ≥ 1mg/ml) | 0.27 | 2.2
CC[C@H](C)[C@@H](C(=O)N[C@@H](CC(C)C)C(=O)N[C@@H](CO)C(=O)N[C@@H](CO)C(=O)N[C@H](C(=O)N[C@@H](CC(N)=O)C(=O)N[C@H](C(=O)NCC(=O)N[C@@H](CO)C(=O)N[C@@H](CC(N)=O)C(=O)N[C@H](C(=O)N[C@@H](CC(C)C)C(N)=O)[C@@H](C)O)C(C)C)[C@@H](C)O)N(C)C(=O)[C@H](C)NC(=O)CN(C)C(=O)[C@H](Cc1ccccc1)NC(=O)[C@H](CC(N)=O)NC(=O)[C@H](CC(N)=O)NC(=O)[C@H](CO)NC(=O)[C@H](CO)NC(=O)[C@H](CCCNC(=N)N)NC(=O)[C@H](Cc1c[nH]cn1)NC(=O)[C@H](CC(C)C)NC(=O)[C@H](Cc1ccccc1)NC(=O)[C@H](CCC(=O)O)NC(=O)[C@H](C)NC(=O)[C@H](CC(C)C)NC(=O)[C@H](CCCNC(=N)N)NC(=O)[C@H](CCC(N)=O)NC(=O)[C@@H](NC(=O)[C@H](C)NC(=O)[C@@H]1CSSC[C@H](NC(=O)[C@H](CCCNC(=N)N)NC(=O)CC[C@H](NC(=O)CCCCCCCCCCCCCCCCCCC(=O)O)C(=O)O)C(=O)N[C@@H](CC(N)=O)C(=O)N[C@@H]([C@@H](C)O)C(=O)N[C@@H](C)C(=O)N[C@@H]([C@@H](C)O)C(=O)N1)[C@@H](C)O [Compound 100, [19CD]-isoGlu-RC()NTATC()ATQRLAEFLHRSSNNF-Gly(Me)-A-Ile(Me)-LSSTNVGSNTL-NH2] ({C20 diacid-γGlu}-RCNTATCATQRLAEFLHRSSNNF[Sar]A[NMeI]LSSTNVGSNTL-NH2; disulfide 2-7) | SS (SS indicates solubility ≥ 1mg/ml) | SS (SS indicates solubility ≥ 1mg/ml) | SS (SS indicates solubility ≥ 1mg/ml) | SS (SS indicates solubility ≥ 1mg/ml) | II (II indicates solubility ≤ 1 mg/ml) | SS (SS indicates solubility ≥ 1mg/ml) | SS (SS indicates solubility ≥ 1mg/ml) | 0.37 | 6.3
CC[C@H](C)[C@@H](C(=O)N[C@@H](CC(C)C)C(=O)N[C@@H](CO)C(=O)N[C@@H](CO)C(=O)N[C@H](C(=O)N[C@@H](CC(N)=O)C(=O)N[C@H](C(=O)NCC(=O)N[C@@H](CO)C(=O)N[C@@H](CC(N)=O)C(=O)N[C@H](C(=O)N(C)CC(N)=O)[C@@H](C)O)C(C)C)[C@@H](C)O)N(C)C(=O)[C@H](C)NC(=O)CN(C)C(=O)[C@H](Cc1ccccc1)NC(=O)[C@H](CC(N)=O)NC(=O)[C@H](CC(N)=O)NC(=O)[C@H](CO)NC(=O)[C@H](CO)NC(=O)[C@H](CCCNC(=N)N)NC(=O)[C@H](Cc1c[nH]cn1)NC(=O)[C@H](CC(C)C)NC(=O)[C@H](Cc1ccccc1)NC(=O)[C@H](CCC(=O)O)NC(=O)[C@H](C)NC(=O)[C@H](CC(C)C)NC(=O)[C@H](CCCNC(=N)N)NC(=O)[C@H](CCC(N)=O)NC(=O)[C@@H](NC(=O)[C@H](C)NC(=O)[C@@H]1CSSC[C@H](NC(=O)[C@H](CCCNC(=N)N)NC(=O)CC[C@H](NC(=O)CCCCCCCCCCCCCCCCCCC(=O)O)C(=O)O)C(=O)N[C@@H](CC(N)=O)C(=O)N[C@@H]([C@@H](C)O)C(=O)N[C@@H](C)C(=O)N[C@@H]([C@@H](C)O)C(=O)N1)[C@@H](C)O [Compound 101, [19CD]-isoGlu-RC()NTATC()ATQRLAEFLHRSSNNF-Gly(Me)-A-Ile(Me)-LSSTNVGSNT-Gly(Me)-NH2] ({C20 diacid-γGlu}-RCNTATCATQRLAEFLHRSSNNF[Sar]A[NMeI]LSSTNVGSNT[Sar]-NH2; disulfide 2-7) | SS (SS indicates solubility ≥ 1mg/ml) | SS (SS indicates solubility ≥ 1mg/ml) | SS (SS indicates solubility ≥ 1mg/ml) | SS (SS indicates solubility ≥ 1mg/ml) | II (II indicates solubility ≤ 1 mg/ml) | SS (SS indicates solubility ≥ 1mg/ml) | SS (SS indicates solubility ≥ 1mg/ml) | 0.6 | 2.7
